One assay deals with T1, human LPA4 receptor (Homo sapiens, UniProt Q99677).
T1 construct: expressed in transfected cells; host or cells: rat hepatocellular carcinoma cell line RH7777, targeted integration at the rRosa26 site
Put plainly: LPA4/SRE-luc reporter assay in RH7777 cells stably expressing human LPA4 receptor and SRE-Luc2. It counts as cell-based. The settings on record: for EC50: read-out: LPA4/SRE-luc EC50. The procedure:
(§1) A stably expressing cell line that constantly expresses the human LPA4 receptor and SRE-Luc2 was established by the gene targeting introduction method of the rat hepatocellular carcinoma cell line RH7777 into rRosa26 site. Similarly, stably expressing cell lines for human LPA1 receptor and SRE-Luc2 were also established. Each cell line was seeded on a collagen-coated dish and maintained in culture, and cells were collected with trypsin EDTA and the required number (5×10^3 cells/well) was seeded on a 96-well plate. After culturing overnight at 37° C., LPA (Avanti Polar Lipids, Inc.) or each Example compound diluted with an assay medium added or not added with BSA was added, and the cells were cultured at 37° C. for 6 hr. Thereafter, a luciferase detection reagent (Bright-Glo, Promega) was added, and the chemiluminescence amount was quantified with an Envision (registered trade mark) multi-label counter (PerkinElmer) and used as an index of agonist activity.
(§2) The EC50 value of LPA or each Example compound was calculated using the […] Graph pad Prism for Windows ver.5.02 and ver.7.04. % Emax was expressed as the ratio of the maximum response (Emax) of LPA or each Example compound to the maximum response (Emax) of the positive control compound VPC 31144S (N-{(1S)-2-hydroxy-1-[(phosphonooxy)methyl]ethyl}(9Z) cctadec-9-enamide), with the Emax of the positive control compound VPC 31144S as 100%.
In general terms: Reporter assays use an easily measured gene product as a stand-in for the process of interest.

For another assay, the target named is T2, human LPA1 receptor (Homo sapiens, UniProt Q92633).
T2 construct: expressed in transfected cells; host or cells: rat hepatocellular carcinoma cell line RH7777 (made 'similarly' to the LPA4 line)
T2 sequence (Q92633 whole entry): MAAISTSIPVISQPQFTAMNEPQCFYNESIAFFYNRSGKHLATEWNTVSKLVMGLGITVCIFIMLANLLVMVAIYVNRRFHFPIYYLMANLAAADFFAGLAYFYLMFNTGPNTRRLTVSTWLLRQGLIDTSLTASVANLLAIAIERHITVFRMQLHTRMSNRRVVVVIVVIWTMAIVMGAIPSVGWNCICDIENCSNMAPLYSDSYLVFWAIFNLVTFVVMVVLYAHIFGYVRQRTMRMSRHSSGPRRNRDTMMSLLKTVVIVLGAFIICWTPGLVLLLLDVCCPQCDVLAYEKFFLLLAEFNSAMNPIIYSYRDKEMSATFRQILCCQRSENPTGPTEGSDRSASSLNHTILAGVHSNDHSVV
Put plainly: LPA1/SRE-luc reporter assay in RH7777 cells stably expressing human LPA1 receptor and SRE-Luc2. In kind it is cell-based. Conditions: read-out: LPA1/SRE-luc EC50. The procedure:
as §1, §2

Setting [1] is: RH7777, BSA not added, Emax of positive control VPC 31144S as 100%, read-out: LPA4/SRE-luc % Emax.
Setting [2] is: RH7777, read-out: LPA4/SRE-luc % Emax.
The mark [3] stands for this setting: RH7777, BSA added, Emax of positive control VPC 31144S as 100%, read-out: LPA4/SRE-luc % Emax.

The structures appear in SMILES notation. Counter-ions that a name gives are not always drawn. Like-named read-outs stand apart in the source and are kept apart here.

T1 sequence (Q99677 whole entry): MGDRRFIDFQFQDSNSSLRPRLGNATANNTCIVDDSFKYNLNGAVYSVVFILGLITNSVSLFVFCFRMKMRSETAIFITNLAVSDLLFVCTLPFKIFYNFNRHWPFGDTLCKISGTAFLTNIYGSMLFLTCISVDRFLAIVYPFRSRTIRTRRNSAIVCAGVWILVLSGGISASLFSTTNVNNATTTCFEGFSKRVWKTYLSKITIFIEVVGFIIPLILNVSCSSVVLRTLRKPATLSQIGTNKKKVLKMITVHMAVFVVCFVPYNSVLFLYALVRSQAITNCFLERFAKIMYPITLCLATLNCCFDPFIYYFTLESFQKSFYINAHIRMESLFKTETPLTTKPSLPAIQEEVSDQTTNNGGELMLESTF

With `CCCCCCCCCOc1ccc(CCC(=O)N2CC(OP(=O)(O)O)C2)cc1` [Example 1, 1-{3-[4-(Nonyloxy)phenyl]propanoyl}azetidin-3-yl dihydrogen phosphate ammonium salt], the values for the EC50 at human LPA4 receptor (BSA not added) and on human LPA1 receptor (BSA not added) were 0.028 µM and greater than 10 µM, respectively. For the same molecule, the Emax on human LPA4 receptor (setting [1]) is 119%.

On to `CCCCCCc1ccc(CCCCC(=O)N2CC(OP(=O)(O)O)C2)cc1` [Example 7, 1-[5-(4-Hexylphenyl)pentanoyl]azetidin-3-yl dihydrogen phosphate], for which the EC50 was 0.037 µM at human LPA4 receptor (BSA not added) and greater than 10 µM at human LPA1 receptor (BSA not added). For the same molecule, on human LPA4 receptor (setting [1]), the Emax was found to be 125%.

For `Cc1ccc(CCCCCCCCCC(=O)N2CC(OP(=O)(O)O)C2)cc1` [Example 10, 1-[10-(4-Methylphenyl)decanoyl]azetidin-3-yl dihydrogen phosphate], the EC50 on human LPA4 receptor (BSA not added) was 0.03 µM; on human LPA1 receptor (BSA not added) it was greater than 10 µM. Besides, the Emax on human LPA4 receptor (setting [2]) turned out to be 101%.

For `CCCc1ccc(CCCCCCCC(=O)N2CC(OP(=O)(O)O)C2)cc1` [Example 15, 1-[8-(4-Propylphenyl)octanoyl]azetidin-3-yl dihydrogen phosphate], the EC50 on human LPA4 receptor (BSA not added) is 0.042 µM; at human LPA1 receptor (BSA not added), greater than 10 µM. Besides, the Emax on human LPA4 receptor (setting [1]) is 75%.

`CCCCCCCCCCOc1cccc(CCC(=O)N2CC[C@@H](OP(=O)(O)O)C2)c1` [Example 18, (3R)-1-{3-[3-(Decyloxy)phenyl]propanoyl}pyrrolidin-3-yl dihydrogen phosphate ammonium salt]: the results for the EC50 on human LPA4 receptor (BSA not added) and on human LPA1 receptor (BSA not added) were 0.0019 µM and greater than 10 µM, respectively. In addition, the Emax on human LPA4 receptor (setting [1]) worked out at 122%.

Take `CCCCCCCCCOc1ccc(CCC(=O)N2CC[C@@H](OP(=O)(O)O)C2)cc1` [Example 20, (3R)-1-{3-[4-(Nonyloxy)phenyl]propanoyl}pyrrolidin-3-yl dihydrogen phosphate ammonium salt]: the EC50 was 0.02 µM on human LPA4 receptor (BSA not added) and greater than 10 µM at human LPA1 receptor (BSA not added). For the same molecule, the Emax on human LPA4 receptor (setting [1]) amounted to 153%.

In the case of `CCc1ccc(CCCCCCCCC(=O)N2CC[C@@H](OP(=O)(O)O)C2)cc1` [Example 24, (3R)-1-[9-(4-Ethylphenyl)nonanoyl]pyrrolidin-3-yl dihydrogen phosphate ammonium salt], the EC50 at human LPA4 receptor (BSA not added) was 0.0056 µM; on human LPA1 receptor (BSA not added) it was greater than 10 µM. The Emax on human LPA4 receptor (setting [1]) came to 138%.

Turning to `CCCCCCCCOc1ccc(CCCC(=O)N2CC(OP(=O)(O)O)C2)cc1` [Example 26, 1-{4-[4-(Octyloxy)phenyl]butanoyl}azetidin-3-yl dihydrogen phosphate], the EC50 on human LPA4 receptor (BSA not added) is 0.01 µM; at human LPA1 receptor (BSA not added), greater than 10 µM. Besides, the Emax on human LPA4 receptor (setting [2]) worked out at 125%.

As for `Cc1ccc(CCc2ccc(CCCC(=O)N3CC[C@@H](OP(=O)(O)O)C3)cc2)cc1` [Example 29, (3R)-1-(4-{4-[2-(4-Methylphenyl)ethyl]phenyl}butanoyl)pyrrolidin-3-yl dihydrogen phosphate ammonium salt], the EC50 at human LPA4 receptor (BSA not added) was 0.045 µM; on human LPA1 receptor (BSA not added) it was greater than 10 µM. The Emax at human LPA4 receptor (setting [1]) stood at 145%.

Consider `CCCCCCCCCCOc1cccc(CCC(=O)N(CCOP(=O)(O)O)CC(C)C)c1` [Example 33, 2-[{3-[3-(Decyloxy)phenyl]propanoyl}(2-methylpropyl)amino]ethyl dihydrogen phosphate ammonium salt], for which the values for the EC50 at human LPA4 receptor (BSA not added) and at human LPA1 receptor (BSA not added) were 0.033 µM and greater than 10 µM, respectively. Further, the Emax on human LPA4 receptor (setting [1]) amounted to 121%.

With `CCCCCCCCc1cccc(CCCCCCCC(=O)N2CC(OP(=O)(O)O)C2)c1` [Example compound 43, 1-[8-(3-Octylphenyl)octanoyl]azetidin-3-yl dihydrogen phosphate ammonium salt], the EC50 on human LPA4 receptor (BSA not added) is 0.027 µM; on human LPA1 receptor (BSA not added) it was greater than 10 µM. Also, the Emax at human LPA4 receptor (setting [1]) was 86%.

In the case of `CCCCCCCCCCOc1cccc(CCC(=O)N(CCCCOC)CCOP(=O)(O)O)c1` [Example compound 47, 2-[{3-[3-(Decyloxy)phenyl]propanoyl}(4-methoxybutyl)amino]ethyl dihydrogen phosphate ammonium salt], the EC50 on human LPA4 receptor (BSA not added) was 0.046 µM; at human LPA1 receptor (BSA not added), greater than 10 µM. The Emax on human LPA4 receptor (setting [1]) was 94%.

On to `CCCCCCCCCCOc1cccc(CCC(=O)N(CCCCCO)CCOP(=O)(O)O)c1` [Example compound 50, 2-[{3-[3-(Decyloxy)phenyl]propanoyl}(5-hydroxypentyl)amino]ethyl dihydrogen phosphate ammonium salt], for which the EC50 at human LPA4 receptor (BSA not added) was 0.023 µM; on human LPA1 receptor (BSA not added), greater than 1 µM. The Emax at human LPA4 receptor (setting [1]) is 79%.

Take `CCCCCCCCCCOc1cccc(CCC(=O)N(CCOP(=O)(O)O)Cc2ccc(OC)cc2)c1` [Example compound 54, 2-[{3-[3-(Decyloxy)phenyl]propanoyl}(4-methoxybenzyl)amino]ethyl dihydrogen phosphate ammonium salt]: the EC50 at human LPA4 receptor (BSA not added) was less than 0.041 µM; at human LPA1 receptor (BSA not added) it was greater than 10 µM. Further, at human LPA4 receptor (setting [1]), the Emax worked out at 106%.

Regarding `CCCCCCCCCCOc1cccc(CCC(=O)N(CCOP(=O)(O)O)Cc2ccncc2)c1` [Example compound 58, 2-[{3-[3-(Decyloxy)phenyl]propanoyl}(pyridin-4-ylmethyl)amino]ethyl dihydrogen phosphate ammonium salt], the EC50 is less than 0.041 µM at human LPA4 receptor (BSA not added) and greater than 3 µM at human LPA1 receptor (BSA not added). Moreover, the Emax on human LPA4 receptor (setting [1]) worked out at 148%.

Take `CCCCCCCc1ccc(CCCCC(=O)N2CC(OP(=O)(O)O)C2)cc1` [Example compound 59, 1-[5-(4-Heptylphenyl)pentanoyl]azetidin-3-yl dihydrogen phosphate ammonium salt]: the EC50 was less than 0.041 µM at human LPA4 receptor (BSA not added) and greater than 10 µM at human LPA1 receptor (BSA not added). In addition, the Emax at human LPA4 receptor (setting [1]) was determined as 86%.

Take `CC(C)c1ccc(CCCCCCCCC(=O)N2CC(OP(=O)(O)O)C2)cc1` [Example compound 66, 1 {9-[4-(Propan-2-yl)phenyl]nonanoyl}azetidin-3-yl dihydrogen phosphate]: the EC50 on human LPA4 receptor (BSA not added) is less than 0.041 µM; at human LPA1 receptor (BSA not added), greater than 10 µM. For the same molecule, the Emax at human LPA4 receptor (setting [1]) is 280%.

For the molecule `O=C(CCCCCCCCc1ccc(C2CC2)cc1)N1CC(OP(=O)(O)O)C1` [Example compound 87, 1-[9-(4-Cyclopropylphenyl)nonanoyl]azetidin-3-yl dihydrogen phosphate ammonium salt], the EC50 was 0.05 µM at human LPA4 receptor (BSA added) and greater than 10 µM at human LPA1 receptor (BSA added). Besides, at human LPA4 receptor (setting [3]), the Emax amounted to 97%.

For `O=C(CCCCc1cccc(OCCCCC2CCCCC2)c1)N1CC(OP(=O)(O)O)C1` [Example compound 88, 1-{5-[3-(4-Cyclohexylbutoxy)phenyl]pentanoyl}azetidinyl dihydrogen phosphate ammonium salt], the results for the EC50 on human LPA4 receptor (BSA added) and at human LPA1 receptor (BSA added) were 0.02 µM and greater than 10 µM, respectively. Further, the Emax at human LPA4 receptor (setting [3]) turned out to be 152%.

Consider `O=C(CCCCCCCCc1ccc(C2CCCCC2)cc1)N1CC(OP(=O)(O)O)C1` [Example compound 93, 1-[9-(4-Cyclohexylphenyl)nonanoyl]azetidin-3-yl dihydrogen phosphate], for which the EC50 on human LPA4 receptor (BSA added) is less than 0.041 µM; on human LPA1 receptor (BSA added), greater than 10 µM. In addition, the Emax on human LPA4 receptor (setting [3]) turned out to be 113%.

In the case of `CCCCCCCCCCOc1cccc(CCC(=O)N(CCOP(=O)(O)O)Cc2cccc(OC)c2)c1` [Example compound 95, 2-[{3-[3-(Decyloxy)phenyl]propanoyl}(3-methoxybenzyl)amino]ethyl dihydrogen phosphate ammonium salt], the EC50 was less than 0.041 µM at human LPA4 receptor (BSA added) and greater than 10 µM on human LPA1 receptor (BSA added). Further, the Emax at human LPA4 receptor (setting [3]) came to 136%.

Turning to `CCCCCCCc1ccc(CCCCC(=O)N2CC(OP(=O)(O)O)C2)c(C(F)(F)F)c1` [Example compound 100, 1-{5-[4-Heptyl-2-(trifluoromethyl)phenyl]pentanoyl}azetidin-3-yl dihydrogen phosphate ammonium salt], the EC50 is 0.04 µM at human LPA4 receptor (BSA added) and greater than 10 µM at human LPA1 receptor (BSA added). Also, at human LPA4 receptor (setting [3]), the Emax turned out to be 108%.

With `CCCc1ccc(CCCCCCCCC(=O)N(CCOP(=O)(O)O)Cc2cncs2)cc1` [Example compound 102, 2-{[9-(4-Propylphenyl)nonanoyl] (1,3-thiazol-5-ylmethyl)amino}ethyl dihydrogen phosphate ammonium salt], the EC50 is 0.047 µM at human LPA4 receptor (BSA added) and greater than 10 µM at human LPA1 receptor (BSA added). Besides, the Emax on human LPA4 receptor (setting [3]) was determined as 121%.

For `COc1ccc(CN(CCOP(=O)(O)O)C(=O)CCCCc2ccc(OCCc3ccc(OC(F)(F)F)cc3)cc2)cc1` [Example compound 115, 2-{(4-Methoxybenzyl)[5-(4-{2-[4-(trifluoromethoxy)phenyl]ethoxy}phenyl)pentanoyl]amino}ethyl dihydrogen phosphate ammonium salt], the EC50 is less than 0.041 µM at human LPA4 receptor (BSA added) and greater than 10 µM at human LPA1 receptor (BSA added). The Emax on human LPA4 receptor (setting [3]) came out at 114%.

Consider `CCCCCCc1ccc(CCCCCCCCC(=O)N2CC(OP(=O)(O)O)C2)cc1` [Example compound 118, 1-[9-(4-Hexylphenyl)nonanoyl]azetidin-3-yl dihydrogen phosphate], for which the EC50 is less than 0.041 µM at human LPA4 receptor (BSA added) and greater than 10 µM at human LPA1 receptor (BSA added). On human LPA4 receptor (setting [3]), the Emax amounted to 114%.

The values above are taken from patent US11802135B2, “Lysophosphatidic acid derivative” (MITSUBISHI TANABE PHARMA CORPORATION, priority 2021, dated 2023).
